Structures are written as SMILES.

A short description of data set [1]: Inhibition of Influenza A virus (A/Puerto Rico/8/1934(H1N1)) neuraminidase using 4-MU-NANA as substrate preincubated for 10 mins followed by substrate addition measured after 1 hr by fluorescence assay.
Data set [2] is described as follows: Inhibition of Influenza A virus (A/Hong Kong/498/97(H3N2)) neuraminidase using 4-MU-NANA as substrate preincubated for 10 mins followed by substrate addition measured after 1 hr by fluorescence assay.
Data set [3] in a line: Cytotoxicity against MDCK cells after 72 hrs by Alamar-Blue assay. The following applies: dog. In kind it is cell-based, Canis lupus familiaris.

In the case of `CCC(CC)O[C@@H]1C=C(C(=O)O)C[C@H](NC(=N)NC(=O)Cc2ccc(C)cc2)[C@H]1NC(C)=O`, the IC50 was found to be 29.4 nM in data set [1] and 9.5 nM in data set [2].
On the same counts, the results for `CCC(CC)O[C@@H]1C=C(C(=O)O)C[C@H](NC(=N)NC(=O)c2cccc(C)c2)[C@H]1NC(C)=O` are 11.5 nM and 19.5 nM.
`CCC(CC)O[C@@H]1C=C(C(=O)O)C[C@H](NC(=N)NC(=O)Cc2ccc(Br)cc2)[C@H]1NC(C)=O`: the figures for the IC50 in data set [1] and in data set [2] were 14.5 nM and 8 nM, respectively. In data set [3], this molecule had a CC50 at 72 h greater than 1000 nM.
Turning to `CCCCC(=O)NC(=N)N[C@H]1CC(C(=O)O)=C[C@@H](OC(CC)CC)[C@@H]1NC(C)=O`, the IC50 in data set [1] stood at 37 nM; in data set [2], 6 nM.
On the same counts, the results for `CCC(CC)O[C@@H]1C=C(C(=O)O)C[C@H](NC(=N)NC(=O)c2ccncc2)[C@H]1NC(C)=O` are 15.2 nM and 16.1 nM.
In the same order, the values of `CCC(CC)O[C@@H]1C=C(C(=O)O)C[C@H](NC(=N)NC(=O)c2cccc(OC)c2)[C@H]1NC(C)=O` are 175 nM and 533 nM.
On the same counts, the results for `CCC(CC)O[C@@H]1C=C(C(=O)O)C[C@H](NC(=N)NC(=O)c2ccccc2C)[C@H]1NC(C)=O` are greater than 1000 nM and greater than 1000 nM.
Regarding `CCC(CC)O[C@@H]1C=C(C(=O)O)C[C@H](NC(=N)NC(=O)c2ccc([N+](=O)[O-])cc2)[C@H]1NC(C)=O`, the IC50 in data set [1] was 20.1 nM; in data set [2] it was 14.2 nM. In addition, the CC50 at 72 h in data set [3] is greater than 1000 nM.
With `CCC(CC)O[C@@H]1C=C(C(=O)O)C[C@H](NC(=N)NC(=O)c2cc(C)cc(C)c2)[C@H]1NC(C)=O`, the IC50 is 155 nM in data set [1] and 159 nM in data set [2].
On to `CCC(CC)O[C@@H]1C=C(C(=O)O)C[C@H](NC(=N)NC(=O)Cc2ccc3ccccc3c2)[C@H]1NC(C)=O`, for which the IC50 in data set [1] turned out to be 21.1 nM; in data set [2], 7.2 nM. In data set [3], the CC50 at 72 h is greater than 1000 nM.
For `CCC(CC)O[C@@H]1C=C(C(=O)O)C[C@H](NC(=N)NC(=O)CCc2ccccc2)[C@H]1NC(C)=O`, the IC50 in data set [1] was 30.1 nM; in data set [2], 9.4 nM.
In the same order, the values of `CCC(CC)O[C@@H]1C=C(C(=O)O)C[C@H](NC(=N)NC(=O)c2ccc(OC)cc2)[C@H]1NC(C)=O` are 68.6 nM and 215 nM.
In the same order, the values of `CCC(CC)O[C@@H]1C=C(C(=O)O)C[C@H](NC(=N)NC(=O)c2ccccc2O)[C@H]1NC(C)=O` are 49.8 nM and 185 nM.
Take `CCC(CC)O[C@@H]1C=C(C(=O)O)C[C@H](NC(=N)NC(=O)C(C)C)[C@H]1NC(C)=O`: the IC50 in data set [1] came to 38.2 nM; in data set [2], 13.7 nM.
With `CCC(CC)O[C@@H]1C=C(C(=O)O)C[C@H](NC(=N)NC(=O)CCc2cccnc2)[C@H]1NC(C)=O`, the IC50 in data set [1] amounted to 10.2 nM; in data set [2] it was 14.6 nM.
In the case of `CCC(=O)NC(=N)N[C@H]1CC(C(=O)O)=C[C@@H](OC(CC)CC)[C@@H]1NC(C)=O`, the values for the IC50 in data set [1] and in data set [2] were 39.1 nM and 11.4 nM, respectively. Besides, the CC50 at 72 h in data set [3] is greater than 1000 nM.
On to `CCC(CC)O[C@@H]1C=C(C(=O)O)C[C@H](NC(=N)NC(=O)c2cccc(C(F)(F)F)c2)[C@H]1NC(C)=O`, for which the values for the IC50 in data set [1] and in data set [2] were 216 nM and 76.1 nM, respectively.
On the same counts, the results for `CCC(CC)O[C@@H]1C=C(C(=O)O)C[C@H](NC(=N)NC(=O)c2ccccc2)[C@H]1NC(C)=O` are 574 nM and 334 nM.
On the same counts, the results for `CCC(CC)O[C@@H]1C=C(C(=O)O)C[C@H](NC(=N)NC(=O)Cc2ccccc2C)[C@H]1NC(C)=O` are 86.5 nM and 22.8 nM.
As for `CCC(CC)O[C@@H]1C=C(C(=O)O)C[C@H](NC(=N)NC(=O)CCc2ccc(OC)c(OC)c2)[C@H]1NC(C)=O`, the IC50 was determined as 1.43 nM in data set [1] and 3.64 nM in data set [2]. Moreover, the CC50 at 72 h in data set [3] is greater than 1000 nM.
`C=CCCC(=O)NC(=N)N[C@H]1CC(C(=O)O)=C[C@@H](OC(CC)CC)[C@@H]1NC(C)=O`: the IC50 is 8.1 nM in data set [1] and 5.4 nM in data set [2]. This molecule gave a CC50 at 72 h in data set [3] greater than 1000 nM.
As for `CCC(CC)O[C@@H]1C=C(C(=O)O)C[C@H](NC(=N)NC(=O)c2ccccc2OC)[C@H]1NC(C)=O`, the IC50 amounted to 53.5 nM in data set [1] and 125 nM in data set [2].
On the same counts, the results for `CCC(CC)O[C@@H]1C=C(C(=O)O)C[C@H](NC(=N)NC(=O)c2ccccc2C(F)(F)F)[C@H]1NC(C)=O` are greater than 1000 nM and 911 nM.
On the same counts, the results for `CCC(CC)O[C@@H]1C=C(C(=O)O)C[C@H](NC(=N)NC(=O)c2ccc(C)cc2)[C@H]1NC(C)=O` are greater than 1000 nM and greater than 1000 nM.
For `CCC(CC)O[C@@H]1C=C(C(=O)O)C[C@H](NC(=N)NC(=O)CC(C)C)[C@H]1NC(C)=O`, the IC50 in data set [1] came out at 88.3 nM; in data set [2] it was 18.4 nM.
In the same order, the values of `CCC(CC)O[C@@H]1C=C(C(=O)O)C[C@H](NC(=N)NC(=O)c2ccccc2Br)[C@H]1NC(C)=O` are greater than 1000 nM and greater than 1000 nM.
On the same counts, the results for `CCCC(=O)NC(=N)N[C@H]1CC(C(=O)O)=C[C@@H](OC(CC)CC)[C@@H]1NC(C)=O` are 34.8 nM and 11.2 nM.
In the same order, the values of `CCC(CC)O[C@@H]1C=C(C(=O)O)C[C@H](NC(=N)NC(=O)CCCc2ccccc2)[C@H]1NC(C)=O` are 64.9 nM and 21.4 nM.

Values taken from ChEMBL document CHEMBL4024722, “Discovery of acylguanidine oseltamivir carboxylate derivatives as potent neuraminidase inhibitors” (Bioorg Med Chem, 2017).
